The results in this text go back to patent US10722501B2 (BAYER AKTIENGESELLSCHAFT, priority 2016, dated 2020).

This assay addresses T1, recombinant full-length human prolyl endopeptidase (PREP) (Homo sapiens, UniProt P48147).
T1 construct: To recombinant full-length human prolyl endopeptidase (PREP, R&D-Systems, 4308-SE); purchased R&D-Systems 4308-SE
T1 sequence (P48147 1-710): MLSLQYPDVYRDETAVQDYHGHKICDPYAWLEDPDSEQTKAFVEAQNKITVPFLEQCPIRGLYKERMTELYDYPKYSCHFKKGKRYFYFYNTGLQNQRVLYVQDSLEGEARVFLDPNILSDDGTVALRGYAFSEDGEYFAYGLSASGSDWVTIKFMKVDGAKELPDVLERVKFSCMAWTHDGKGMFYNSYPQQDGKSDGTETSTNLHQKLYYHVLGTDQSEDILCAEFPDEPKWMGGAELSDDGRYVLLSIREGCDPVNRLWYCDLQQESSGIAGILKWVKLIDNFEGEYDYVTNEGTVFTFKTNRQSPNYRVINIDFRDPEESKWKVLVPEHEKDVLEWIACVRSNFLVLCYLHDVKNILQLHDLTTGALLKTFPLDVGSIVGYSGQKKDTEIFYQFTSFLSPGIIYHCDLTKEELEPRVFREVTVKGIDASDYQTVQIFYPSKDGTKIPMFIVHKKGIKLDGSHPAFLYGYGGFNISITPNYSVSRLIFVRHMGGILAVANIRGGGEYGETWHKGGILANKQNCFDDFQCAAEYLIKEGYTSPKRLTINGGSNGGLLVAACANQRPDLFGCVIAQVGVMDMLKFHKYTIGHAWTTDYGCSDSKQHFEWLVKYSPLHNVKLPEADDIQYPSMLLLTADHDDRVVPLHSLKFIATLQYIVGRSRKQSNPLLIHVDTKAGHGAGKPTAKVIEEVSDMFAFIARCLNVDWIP
The assay is described as follows: Biochemical human prolyl endopeptidase (PREP) assay with fluorescently labelled substrate. Particulars: substrate Z-Gly-Pro-AMC 50 μM, 32° C., 60 min; some as mean values from multiple independent determinations. The procedure, abridged: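 Initial rates of fluorescence increase from 50 μM Z-Gly-Pro-AMC cleavage (ex 360/em 465 nm, 60 min, 32° C) give percent PREP activity versus no-compound control, and IC50 is interpolated. Enzyme used at 0.4 nM (final, example) in Tris pH 7.5 with EDTA, GSH, BSA and Brij-35; compounds span 1 nM to 30 μM.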
As to `O=C([C@@H]1CCCc2nn(CCc3ncc(C(F)(F)F)cc3Cl)c(=O)n21)N1CCC(F)(F)C1` [Example 343, (5S)-2-{2-[3-Chloro-5-(trifluoromethyl)pyridin-2-yl]ethyl}-5-[(3,3-difluoropyrrolidin-1-yl)carbonyl]-5,6,7,8-tetrahydro[1,2,4]triazolo[4,3-a]pyridin-3(2H)-one], the IC50 – broadly, the midpoint of a concentration-inhibition curve – was 7.9 nM. For `O=C(C1CCCc2nn(Cc3cc(C(F)(F)F)c(Cl)cn3)c(=O)n21)N1CCCC1` (single isomer, unassigned) [Example 107] the value was 2.1 nM; for `Cc1[nH]cnc1Cn1nc2n(c1=O)C(C(=O)N1CCCC1)CCC2` (racemic) [Example 24, (5RS)-2-[(5-Methyl-1H-imidazol-4-yl)methyl]-5-(pyrrolidin-1-ylcarbonyl)-5,6,7,8-tetrahydro[1,2,4]triazolo[4,3-a]pyridin-3(2H)-one], 4.9 nM; for `O=C([C@@H]1CCCc2nn(Cc3ccc(C(F)(F)F)cn3)c(=O)n21)N1CCCC1` [Example 531, (5S)-5-(Pyrrolidin-1-ylcarbonyl)-2-{[5-(trifluoromethyl)pyridin-2-yl]methyl}-5,6,7,8-tetrahydro[1,2,4]triazolo[4,3-a]pyridin-3(2H)-one], 3 nM.

Regarding `O=C([C@@H]1CCCc2nn(CCc3ccc(F)cc3)c(=O)n21)N1CCC(F)(F)C1` [Example 519, (5S)-5-[(3,3-Difluoropyrrolidin-1-yl)carbonyl]-2-[2-(4-fluorophenyl)ethyl]-5,6,7,8-tetrahydro[1,2,4]triazolo[4,3-a]pyridin-3(2H)-one], the 50% inhibitory concentration (IC50) is 1.4 nM. The same measure for `O=C([C@@H]1CCCc2nn(CC3(c4ccc(F)cc4)CC3)c(=O)n21)N1CC[C@H](F)C1` [Example 352, (5S)-2-{[1-(4-Fluorophenyl)cyclopropyl]methyl}-5-{[(3S)-3-fluoropyrrolidin-1-yl]carbonyl}-5,6,7,8-tetrahydro[1,2,4]triazolo[4,3-a]pyridin-3(2H)-one]: 0.32 nM; for `Cc1ccc(CCn2nc3n(c2=O)C(C(=O)N2CCCC2)CCC3)cc1` (racemic) [Example 57, (5RS)-2-[2-(4-Methylphenyl)ethyl]-5-(pyrrolidin-1-ylcarbonyl)-5,6,7,8-tetrahydro[1,2,4]triazolo[4,3-a]pyridin-3(2H)-one]: 4.1 nM. For `O=C(C1CCc2nn(Cc3ccnc(C(F)(F)F)c3F)c(=O)n21)N1C[C@@H](F)[C@@H](F)C1` (single isomer, unassigned) [Example 176] the value was 445 nM; for `O=C(C1CCCc2nn(Cc3ccc(C(F)(F)F)cn3)c(=O)n21)N1CCCC1` (racemic) [Example 23, (5RS)-5-(Pyrrolidin-1-ylcarbonyl)-2-{[5-(trifluoromethyl)pyridin-2-yl]methyl}-5,6,7,8-tetrahydro[1,2,4]triazolo[4,3-a]pyridin-3(2H)-one], 4.95 nM. The same measure for `O=C([C@@H]1CCc2nn(Cc3ccc(Cl)nc3)c(=O)n21)N1CCCC1` [Example 52, (5S)-2-[(6-Chloropyridin-3-yl)methyl]-5-(pyrrolidin-1-ylcarbonyl)-2,5,6,7-tetrahydro-3H-pyrrolo[2,1-c][1,2,4]triazol-3-one]: 4.6 nM; for `Cc1ccc(Cn2nc3n(c2=O)[C@H](C(=O)N2CC[C@H](F)C2)CCC3)cc1` [Example 110, (5S)-5-{[(3S)-3-Fluoropyrrolidin-1-yl]carbonyl}-2-(4-methylbenzyl)-5,6,7,8-tetrahydro[1,2,4]triazolo[4,3-a]pyridin-3(2H)-one]: 0.32 nM. As to `O=C(C1CCCc2nn(Cc3ccc(OC(F)F)cc3)c(=O)n21)N1CCCC1` (racemic) [Example 7, (5RS)-2-[4-(Difluoromethoxy)benzyl]-5-(pyrrolidin-1-ylcarbonyl)-5,6,7,8-tetrahydro[1,2,4]triazolo[4,3-a]pyridin-3(2H)-one], the IC50 came out at 8 nM. The same measure for `O=C([C@@H]1CCCc2nn(Cc3ccnc(C(F)(F)F)c3F)c(=O)n21)N1CCC2CC21` (mixture of isomers) [Example 205, (5S)-5-[(1 RS,5SR)-2-Azabicyclo[3.1.0]hex-2-ylcarbonyl]-2-{[3-fluoro-2-(trifluoromethyl)pyridin-4-yl]methyl}-5,6,7,8-tetrahydro[1,2,4]triazolo[4,3-a]pyridin-3(2H)-one]: 10 nM; for `Cc1ccc(Cn2nc3n(c2=O)C(C(=O)N2CCC4CC42)CCC3)cc1` (racemic) [Example 144, (5S)-5-[(cis)-2-Azabicyclo[3.1.0]hex-2-ylcarbonyl]-2-(4-methylbenzyl)-5,6,7,8-tetrahydro[1,2,4]triazolo[4,3-a]pyridin-3(2H)-one]: 1.7 nM. For `CC1Cc2nn(Cc3ccc(C(F)(F)F)nc3)c(=O)n2C(C(=O)N2C[C@@H](F)[C@@H](F)C2)C1` (single isomer, unassigned) [Example 337] the value was 7.5 nM. For `CCn1nc(C(F)(F)F)cc1Cn1nc2n(c1=O)[C@H](C(=O)N1CCC(F)(F)C1)CCC2` [Example 362, (5S)-5-[(3,3-Difluoropyrrolidin-1-yl)carbonyl]-2-{[1-ethyl-3-(trifluoromethyl)-1H-pyrazol-5-yl]methyl}-5,6,7,8-tetrahydro[1,2,4]triazolo[4,3-a]pyridin-3(2H)-one], the IC50 came out at 1.35 nM. For the molecule `O=C([C@@H]1CCCc2nn(Cc3ncc(C(F)(F)F)cc3Cl)c(=O)n21)N1CC(F)C1` [Example 402, (5S)-2-{[3-Chloro-5-(trifluoromethyl)pyridin-2-yl]methyl}-5-[(3-fluoroazetidin-1-yl)carbonyl]-5,6,7,8-tetrahydro[1,2,4]triazolo[4,3-a]pyridin-3(2H)-one], the IC50 is 2.7 nM. For `O=C([C@@H]1CCCc2nn(Cc3cc(C(F)(F)F)nc4ccccc34)c(=O)n21)N1CC(O)C1` [Example 495, (5S)-5-[(3-Hydroxyazetidin-1-yl)carbonyl]-2-{[2-(trifluoromethyl)quinolin-4-yl]methyl}-5,6,7,8-tetrahydro[1,2,4]triazolo[4,3-a]pyridin-3(2H)-one], the half-inhibitory concentration (IC50) was 16.5 nM. The same measure for `O=C(C1CC(C(F)(F)F)Cc2nn(Cc3ccc(C(F)(F)F)nc3)c(=O)n21)N1CC(O)C1` (racemic) [Example 233, (5RS,7RS)-5-[(3-Hydroxyazetidin-1-yl)carbonyl]-7-(trifluoromethyl)-2-{[6-(trifluoromethyl)pyridin-3-yl]methyl}-5,6,7,8-tetrahydro[1,2,4]triazolo[4,3-a]pyridin-3(2H)-one]: 203 nM; for `O=C(C1CCc2nn(Cc3ccc(F)c(Cl)c3)c(=O)n21)N1CC[C@H](F)C1` (mixture of isomers) [Example 165, (5RS)-2-(3-Chloro-4-fluorobenzyl)-5-{[(3S)-3-fluoropyrrolidin-1-yl]carbonyl}-2,5,6,7-tetrahydro-3H-pyrrolo[2,1-c][1,2,4]triazol-3-one]: 0.89 nM; for `O=C(C1CC(C(F)(F)F)Cc2nn(Cc3ccc(Cl)cn3)c(=O)n21)N1CC[C@H](F)C1` (single isomer, unassigned) [Example 315]: 1.4 nM.

In the case of `O=C([C@@H]1CCCc2nn(Cc3ncc(Cl)cc3Cl)c(=O)n21)N1CC(F)C1` [Example 398, (5S)-2-[(3,5-Dichloropyridin-2-yl)methyl]-5-[(3-fluoroazetidin-1-yl)carbonyl]-5,6,7,8-tetrahydro[1,2,4]triazolo[4,3-a]pyridin-3(2H)-one], the half-maximal inhibitory concentration (IC50) stood at 1.19 nM.
